According to article PMC9321647, “Curcumin-Based β-Diketo Ligands for Ga^3+: Thermodynamic Investigation of Potential Metal-Based Drugs” (Pharmaceuticals, 2022):
Like-named read-outs stand apart in the source and are kept apart here. Values belong to the compound of their own block, whether it stands above or below them.

Tests used:
[1] = Kinetic stability of ligands in simulated physiological conditions (UV-Vis); format: physicochemical
Procedure: The chemical stability of ligands and metal complexes at the M:L 1:L molar ratio at 37 °C in darkness was evaluated by UV−Vis spectroscopy as a change in absorbance in the 250−600 nm range over an overall period of 8 h. Solutions (5.0 × 10^–5 mol L^–1) of the ligands were prepared in 0.1 mol L^–1 phosphate-buffered solution (PBS) at pH 7.4. Spectra were recorded every 30 min. All profiles were linearized as the hyperbolic function defined by Equation (2), which represents an empirical model that describes drug decomposition or release well [42]:(2) t/f%=at+b where f% is the percentage of the residual compound at time t (min) referred to the starting concentration at time zero determined by reading the absorbance at λmax.

[2] = Keto-enol/diketo tautomer amounts by 1H NMR; format: physicochemical; details: molar percentage, MeOD-d4, 298 K
Procedure: NMR spectra were recorded by means of a Bruker Biospin FT-NMR AVANCE III HD (600 MHz) spectrometer equipped with a CryoProbe BBO H&F 5 mm in inverse detection. The nominal frequencies were 150.90 MHz for ^13C and 600.13 MHz for ^1H, respectively. For each sample, 1–5 mg were weighed and diluted up to 0.6 mL with a proper solvent in a 5 mm NMR tube; 90° pulse was calibrated for each sample, and standard NMR parameters were used to achieve quantitative results (relaxation delay, 10 s). Proton and carbon chemical shifts are given in parts per million (ppm) versus external TMS and were determined by reference to the solvent residual signals. Typical 2D homo- and heteronuclear techniques were used for assignment, i.e., ^1H,^1H COSY, ^1H,^13C HSQC, ^1H,^13C HMBC. NMR investigations of Ga^3+:L systems were performed in MeOD-d4 by adding small amounts of a Ga(NO3)3 solution (10 μL each) to 1 mM ligand solution (0.6 mL) until reaching the desired metal-to-ligand molar ratio. The complexation reaction is fast, and spectra were registered few minutes after the addition. Two-dimensional ^1H,^13C heteronuclear multiple bond correlation (HMBC) experiments (hmbcgpndqf in Bruker library) were performed via heteronuclear zero and double quantum coherence, optimized on long-range couplings (^3/4JHC = 8 Hz), with no decoupling during acquisition, and gradient pulses were used for selection. The relative percentages of the isomeric forms were estimated on the basis of the NMR data. Particularly, ^1H NMR spectra were acquired in quantitative conditions being D1 (relaxation delay) at least five times the T1 of the slowest relaxing signal of interest. The raw data were Fourier-transformed, and then the processing was performed by zero filling (SI = TD), line broadening (lb 0.3 Hz), accurate phasing and correcting the baseline. The most isolated signals were selected for integration, i.e., the vinyl protons (H-3 and H-4), and an average of the integrated area (A) of H-3 and H-4 was used for relative quantitation, according to the following equation: %Tautomeri=(A(H−3)i+(A(H−4)i)/2/∑i(A(H−3)i+(A(H−4)i)/2×100

[3] = Spectrophotometric pH titrations of ligands (protonation constants, pKa); format: physicochemical; details: 298 K; for pKa: aqueous solution (methanol stock diluted in water), calculated from logβ values, * = keto–enol moiety dissociation
Procedure: (§1) UV–visible spectra were recorded with a JASCO V-570 UV/Vis/NIR spectrophotometer at 298 K in the 250–600 nm spectral range employing quartz cells (1 cm optical path). To perform spectrophotometric titrations, ligands (denoted generally as L in the following) were dissolved in methanol to give a mother solution (2.50 mM), that was then diluted in water in order to obtain a final concentration of 50 μM. The metal/ligand (M:L) solutions were obtained by adding appropriate quantities of Ga(NO3)3 as methanol solutions (5–10 mM) in order to obtain the metal-to-ligand 1:1 molar ratio (L = 50 μM and V = 25 mL). For both L and M:L systems, pH (initial value of about 5) was varied by adding small amounts (<1 μL) of concentrated NaOH (4 M) up to ca. pH 11, thus to consider volume variations negligible. To evaluate the complexation ratio, constant additions of the M solution (10 µL each time, M = 10^–2 M) were dropped into the ligand solution (V = 25 mL, L = 50 μM) using a micropipette in order to reach different M:L molar ratios. A constant ionic strength (NaNO3, 0.1 M) was maintained in all experiments. Spectrophotometric investigations of iron(III) systems were performed in the same conditions; the Fe^3+ solution was freshly prepared in methanol starting from Fe(NO3)3·9H2O. The overall protonation constants (logβqr) and the overall stability constants of metal complexes (logβpqr) were evaluated from spectrophotometric data. The stability constants (βpqr), defined by the following equations:(3) pM^m++qL^l^−+rH^+⇌MpLqHr(mp−lq+r) (4) βpqr=[MpLqHr(mp−lq+r)]/[M^m+]^p·[L^l−]^q·[H^+]^r where L is the ligand in the completely dissociated form and H is proton, were refined using least-squares calculation in HypSpec. The results of least-squares calculation include the standard deviations and correlation coefficients of the refined parameters. The quantities are obtained by performing error propagation calculation from the experimental errors onto the parameters. The stability constant refinement furnishes least-squares estimates of the standard deviation, σ, of the stability constant β. The error on logβ is calculated as follows: σ(logβ) = [log(β + σ) − log(β − σ)]/2.

[4] = Spectrophotometric pH-metric titrations of Ga^3+:ligand systems (stability constants, pGa, speciation); format: physicochemical
Procedure: as §1
Hydroxide species, such as [Ga(OH)2]^+, were taken into account for calculations. The hydrolysis constants for Ga^3+ are as follows: logβ1,1,0 = −3.93; logβ2,1,0 = −7.73; logβ3,1,0 = −12.38; logβ4,1,0 = −15.96; logβ32,13,0 = −66.3; logβ3,1,0(s) = −3.54 [43]; pGa is defined as (−log[Ga^3+]free) and is calculated at specific conditions (Ga^3+total = 1 μM, Ltotal = 10 μM, pH 7.4, 25 °C). For the calculation of the iron(III) overall stability constants, the presence of [Fe(OH)]^2+, [Fe(OH)2]^+ and [Fe(OH)3] species was taken into account.

[5] = tested on: HCT116 colon carcinoma cells; assay: MTT cell viability assay; format: cell-based, Human; details: Homo sapiens, HCT-116, HCT116, 48 h of treatment, mean
Procedure: Human colorectal carcinoma HCT116 cells (#91091005, ECACC) were grown in an IMDM medium (Biowest) supplemented with 2 mM glutamine, 100 IU/mL penicillin, 100 μg/mL streptomycin and 10% FBS (Gibco). The cell lines were grown at 37 °C in a humidified incubator containing 5% CO2. The cells were verified to be mycoplasma-free and passaged < 3 months. The inhibition of cell proliferation was measured by colorimetric 3-(4,5-dimethylthiazol-2-yl)-2,5-diphenyltetrazolium bromide (MTT) assay. GI50 concentrations were determined using the CompuSyn software version 1.0 (ComboSyn, Inc., Paramus, NJ USA) (free download via www.combosyn.com, accessed on 30 May 2022), and statistical analyses were performed using the GraphPad PRISM software (version 6.01 for Windows, GraphPad Software, San Diego, California USA GraphPad Prism) using unpaired t-test. Data were considered to be statistically significant if p < 0.05 (*), p < 0.01 (**), p < 0.001(***) and p < 0.0001 (****).

[6] = cited from earlier work
[7] = tested on: transferrin; parameters: method as in PMID 22800370; details: normal plasma bicarbonate concentrations; cited from earlier work
[8] = HypSpec, spectrophotometric data

Stability: percentage of the residual ligand after 4 h ([1]; PBS, pH 7.4, 37 °C in darkness, 4 h): 47%
Stability ranking (residual ligand after 4 h) ([1]; rank among the 7 ligands, 1 = most stable): 6
KK (%) amount of diketo form [2]: 55%
KE (%) amount of keto–enol form ([2]; for 2 includes KE form of the Z isomer (6%)): 45%
logβ011 overall protonation constant [3, 8]: 10.88 (2)
logβ012 overall protonation constant [3, 8]: 20.29 (2)
logβ013 overall protonation constant [3, 8]: 28.84 (4)
pKa ([3]; read-out: pKa1): 8.55
pKa ([3]; read-out: pKa2): 9.41
pKa ([3]; read-out: pKa3): 10.9
log β 112 overall stability constant (Ga^3+) ([4]; 298 K, HypSpec): 28.28 (3)
log β 124 overall stability constant (Ga^3+) ([4]; 298 K, HypSpec): 54.63 (5)
logK11 apparent formation constant (Ga^3+, M:L 1:1) ([4]; 298 K, estimated from logβMLH): 7.99
logK12 apparent formation constant (Ga^3+, M:L 1:2) ([4]; 298 K, estimated from logβMLH): 14.05
Prevailing Species (pH 5.5) ([4]; Ga^3+ complex species, pH 5.5): [Ga(H2L)2]^+
Prevailing Species (pH 7.4) ([4]; Ga^3+ complex species, pH 7.4, ** possible formation of gallium hydroxide species): [Ga(H2L)2]^+
pGa (−log[Ga^3+]free) ([4]; [Ga^3+]total = 1 μM, [L]total = 10 μM, pH 7.4, 25 °C): 20.8
GI50 [5]: 6.21 µM
Structure (SMILES): O=C(/C=C/c1ccc(O)cc1)C(CCCN1C(=O)c2ccccc2C1=O)C(=O)/C=C/c1ccc(O)cc1 [Compound 3]

Structure (SMILES): CC(=O)N(O)CCCCCNC(=O)CCC(=O)N(O)CCCCCNC(=O)CCC(=O)N(O)CCCCCN [DFOB]
pGa [6]: 21.6

Structure (SMILES): [Fe+3] [Fe^3+]
log K1 binding constant to transferrin [7]: 22.8
log K2 binding constant to transferrin [7]: 21.7

Structure (SMILES): [Ga+3] [Ga^3+]
log K1 binding constant to transferrin [7]: 20.3
log K2 binding constant to transferrin [7]: 19.3

Structure (SMILES): O=C(O)CCP(=O)(O)CN1CCN(CP(=O)(O)CCC(=O)O)CCN(CP(=O)(O)CCC(=O)O)CC1 [PrP9]
pGa [6]: 23.1
